This is an account of results in article PMC11672294, “The Antipsychotic Drug Aripiprazole Suppresses Colorectal Cancer by Targeting LAMP2a to Induce RNH1/miR‐99a/mTOR‐Mediated Autophagy and Apoptosis” (Advanced Science, 2024).

Counter-ions that a name gives are not always drawn.

The test system of the first series is HT29. As to conditions: 72 h, relative to DMSO, 10 µM, Relative cell viability (%). In short, it runs like this:
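HT29 viability used WST-1 reduction (2 h, 37 °C, A450) after 72 h of treatment; screening compounds were tested singly at 10 µM, with dimethyl sulfoxide as the comparison.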
Regarding `C[C@@H]1CCN(C(=O)CC#N)C[C@@H]1N(C)c1ncnc2[nH]ccc12` [Tofacitinib (CP-690550,Tasocitinib)], the “Relative cell viability (%)” value was 51.94%.

The series is the same for the next values; noted with them: 72 h, relative to DMSO; 10 µM.
For `CC(C[N+](C)(C)C)OC(N)=O` (stereo not shown) [Bethanechol chloride], the “Relative cell viability (%)” value is 104.3%. `COc1cc(OC)c(C(=O)CCCN2CCCC2)c(OC)c1` [Buflomedil HCl]: the “Relative cell viability (%)” value was 34.47%. Same read-out and setting: the result for `CO[C@H]1C(=O)[C@]2(C)[C@@H](OC)C[C@H]3OC[C@@]3(OC(C)=O)[C@H]2[C@H](OC(=O)c2ccccc2)[C@]2(O)C[C@H](OC(=O)[C@H](O)[C@@H](NC(=O)OC(C)(C)C)c3ccccc3)C(C)=C1C2(C)C` [Cabazitaxel] reads 12.62%. On the same count and under the same terms, under `CN(C)CCCN1c2ccccc2Sc2ccc(Cl)cc21` [Chlorpromazine HCl] stands 93.71%. On the same count and under the same terms, under `O=C[C@H](O)[C@@H](O)[C@H](O)CO` [Xylose] stands 114.9%; under `CCc1c2c(nc3ccc(OC(=O)N4CCC(N5CCCCC5)CC4)cc13)-c1cc3c(c(=O)n1C2)COC(=O)[C@]3(O)CC` [Irinotecan HCl Trihydrate], 113.8%. For `C[C@@H]1CC(=O)NN=C1c1ccc(NN=C(C#N)C#N)cc1` [Levosimendan], the “Relative cell viability (%)” value is given as 103.1%. Still for that read-out and setting: under `CNC[C@H](O)c1ccc(O)c(O)c1` [Epinephrine HCl] stands 70.87%; under `CC1(COc2ccc3c(c2)ncn3-c2ccc3cccc(N4CCC(N)CC4)c3n2)COC1` [Crenolanib (CP-868596)], 11.17%; under `Cc1nnc(NS(=O)(=O)c2ccc(N)cc2)s1` [Sulfamethizole], 202.3%. As to `Cc1ccc(NC(=O)c2ccc(CN3CC[C@H](N(C)C)C3)c(C(F)(F)F)c2)cc1Nc1nccc(-c2cncnc2)n1` [Bafetinib (INNO-406)], the “Relative cell viability (%)” value is reported as 4.206%. For the compound `CC[C@H](C)C(=O)O[C@H]1C[C@H](O)C=C2C=C[C@H](C)[C@H](CC[C@@H](O)C[C@@H](O)CC(=O)O)[C@H]21` [Pravastatin sodium], the “Relative cell viability (%)” value is recorded as 89.81%.

As to `O=C(O)c1cccnc1Nc1cccc(C(F)(F)F)c1` [Niflumic acid], the “Relative cell viability (%)” value turned out to be 95.63%. Still for that read-out and setting: under `NC(CO)(CO)CO` [Trometamol] stands 73.94%; under `O=C(Nc1cccc2c(=O)cc(-c3nnn[nH]3)oc12)c1ccc(OCCCCc2ccccc2)cc1` [Pranlukast], 81.78%. As to `Cc1ccc([C@@H]2O[C@H](CO)[C@@H](O)[C@H](O)[C@H]2O)cc1Cc1ccc(-c2ccc(F)cc2)s1` [Canagliflozin], the “Relative cell viability (%)” value turned out to be 72.33%. On the same count and under the same terms, the result for `COc1cccc2c1C(=O)c1c(O)c3c(c(O)c1C2=O)C[C@@](O)(C(C)=O)C[C@@H]3O[C@H]1C[C@H](N)[C@H](O)[C@H](C)O1` [Daunorubicin HCl] reads 12.62%; that for `CC1(C)S[C@@H]2[C@H](NC(=O)[C@H](N)c3ccc(O)cc3)C(=O)N2[C@H]1C(=O)O` [Amoxicillin], 67.96%. As to `NNC(=O)c1ccncc1` [Isoniazid], the “Relative cell viability (%)” value is recorded as 140.3%. For the compound `Cc1cccc(C)c1NC(=O)CN1CCCC1=O` [Nefiracetam], the “Relative cell viability (%)” value is 192.8%.

With `O=c1[nH]c(=O)n([C@H]2C[C@H](O)[C@@H](CO)O2)cc1C(F)(F)F` [Trifluridine], the “Relative cell viability (%)” value came to 53.81%. Still for that read-out and setting: the result for `O=C(O)CCc1nc(-c2ccccc2)c(-c2ccccc2)o1` [Oxaprozin] reads 63.03%; that for `O=C1c2ccccc2C(=O)C1c1ccccc1` [Phenindione], 136.8%. On the same count and under the same terms, the result for `CC(CCc1ccccc1)NCC(O)c1ccc(O)c(C(N)=O)c1` (stereo not shown) [Labetalol HCl] reads 55.76%; that for `CCCCCCCCCCCCCCCC[n+]1ccccc1` [Cetylpyridinium Chloride], 5.758%; that for `CC(=O)O[C@]1(C(C)=O)CC[C@H]2[C@@H]3C[C@H](C)C4=CC(=O)C=C[C@]4(C)[C@@]3(F)[C@@H](O)C[C@@]21C` [Fluorometholone Acetate], 86.67%. Still for that read-out and setting: under `O=C1CC2(CCCC2)CC(=O)N1CCCCN1CCN(c2ncccn2)CC1` [Buspirone HCl] stands 73.94%; under `Cc1noc(NS(=O)(=O)c2ccc(N)cc2)c1C` [Sulfisoxazole], 134.3%. `Cc1cc(C)c2c(c1)[C@@H](N(Cc1cc(C(F)(F)F)cc(C(F)(F)F)c1)c1nnn(C)n1)CCCN2C[C@H]1CC[C@H](C(=O)O)CC1` [Evacetrapib (LY2484595)]: the “Relative cell viability (%)” value was found to be 40.29%. As to `N[C@@H]1CN(c2c(F)cc3c(=O)c(C(=O)O)cn([C@@H]4C[C@@H]4F)c3c2Cl)CC12CC2` [Sitafloxacin Hydrate], the “Relative cell viability (%)” value is 126.1%. On to `COc1ccc2c(c1)c(CC(=O)OCC(=O)O)c(C)n2C(=O)c1ccc(Cl)cc1` [Acemetacin], for which the “Relative cell viability (%)” value was determined as 81.07%.

Turning to `O=C(O)CCCN1CCC(O[C@@H](c2ccc(Cl)cc2)c2ccccn2)CC1` [Bepotastine Besilate], the “Relative cell viability (%)” value came out at 89.81%. Still for that read-out and setting: under `CN(C)CC/C=C1/c2ccccc2Sc2ccc(Cl)cc21` [Chlorprothixene] stands 28.39%; under `COCCCOc1cc(C[C@@H](C[C@H](N)[C@@H](O)C[C@H](C(=O)NCC(C)(C)C(N)=O)C(C)C)C(C)C)ccc1OC` [Aliskiren Hemifumarate], 106.1%; under `CC[C@H]1[C@@H](O)[C@@H]2[C@H](CC[C@]3(C)[C@@H]([C@H](C)CCC(=O)O)CC[C@@H]23)[C@@]2(C)CC[C@@H](O)C[C@@H]12` [Obeticholic Acid], 111.1%. As for `Cc1c(F)cc(C(=O)NC2CC2)cc1-c1ccc(C(=O)NCC(C)(C)C)cn1` [Losmapimod (GW856553X)], the “Relative cell viability (%)” value is recorded as 94.44%. For the compound `O=c1[nH]c(=O)n([C@H]2C[C@H](O)[C@@H](CO)O2)cc1F` [Floxuridine], the “Relative cell viability (%)” value turned out to be 44.7%. The same measure, in the same setting: under `CC(=O)OCC(=O)NCCCOc1cccc(CN2CCCCC2)c1` [Roxatidine Acetate HCl] stands 111%; under `COc1cc(NS(=O)(=O)c2ccc(N)cc2)nc(OC)n1` [Sulphadimethoxine], 86.06%. As to `C[C@H](Nc1ncnc2[nH]cnc12)c1cc2cccc(Cl)c2c(=O)n1-c1ccccc1` [IPI-145 (INK1197)], the “Relative cell viability (%)” value amounted to 79.06%.

`CCOc1nc2cccc(C(=O)OC(C)OC(=O)OC3CCCCC3)c2n1Cc1ccc(-c2ccccc2-c2nnn[nH]2)cc1` (stereo not shown) [Candesartan Cilexetil]: the “Relative cell viability (%)” value came out at 195.6%. On the same count and under the same terms, the result for `COc1ccccc1OCC(O)CN1CCN(CC(=O)Nc2c(C)cccc2C)CC1` (stereo not shown) [Ranolazine] reads 67.8%; that for `CCOC(=O)[C@H](CCc1ccccc1)N[C@H]1CCCN2CCC[C@@H](C(=O)O)N2C1=O` [Cilazapril Monohydrate], 112%. The same measure, in the same setting: under `Nc1nc2c(ncn2CCC(CO)CO)c(=O)[nH]1` [Penciclovir] stands 100.303%; under `CC(C)(O)c1ccccc1CC[C@@H](SCC1(CC(=O)O)CC1)c1cccc(/C=C/c2ccc3ccc(Cl)cc3n2)c1` [Montelukast Sodium], 74.85%.
